{"source": "patent US11406649B2", "about": "“Treatment of upper aerodigestive tract disorders and cough” (IVIEW THERAPEUTICS, INC., priority 2018, dated 2022)", "key": {"[1]": {"biological_target": "cloned hTRPM8 channel (Homo sapiens (Human), UniProt Q7Z2W7)", "sequence (Q7Z2W7 whole entry)": "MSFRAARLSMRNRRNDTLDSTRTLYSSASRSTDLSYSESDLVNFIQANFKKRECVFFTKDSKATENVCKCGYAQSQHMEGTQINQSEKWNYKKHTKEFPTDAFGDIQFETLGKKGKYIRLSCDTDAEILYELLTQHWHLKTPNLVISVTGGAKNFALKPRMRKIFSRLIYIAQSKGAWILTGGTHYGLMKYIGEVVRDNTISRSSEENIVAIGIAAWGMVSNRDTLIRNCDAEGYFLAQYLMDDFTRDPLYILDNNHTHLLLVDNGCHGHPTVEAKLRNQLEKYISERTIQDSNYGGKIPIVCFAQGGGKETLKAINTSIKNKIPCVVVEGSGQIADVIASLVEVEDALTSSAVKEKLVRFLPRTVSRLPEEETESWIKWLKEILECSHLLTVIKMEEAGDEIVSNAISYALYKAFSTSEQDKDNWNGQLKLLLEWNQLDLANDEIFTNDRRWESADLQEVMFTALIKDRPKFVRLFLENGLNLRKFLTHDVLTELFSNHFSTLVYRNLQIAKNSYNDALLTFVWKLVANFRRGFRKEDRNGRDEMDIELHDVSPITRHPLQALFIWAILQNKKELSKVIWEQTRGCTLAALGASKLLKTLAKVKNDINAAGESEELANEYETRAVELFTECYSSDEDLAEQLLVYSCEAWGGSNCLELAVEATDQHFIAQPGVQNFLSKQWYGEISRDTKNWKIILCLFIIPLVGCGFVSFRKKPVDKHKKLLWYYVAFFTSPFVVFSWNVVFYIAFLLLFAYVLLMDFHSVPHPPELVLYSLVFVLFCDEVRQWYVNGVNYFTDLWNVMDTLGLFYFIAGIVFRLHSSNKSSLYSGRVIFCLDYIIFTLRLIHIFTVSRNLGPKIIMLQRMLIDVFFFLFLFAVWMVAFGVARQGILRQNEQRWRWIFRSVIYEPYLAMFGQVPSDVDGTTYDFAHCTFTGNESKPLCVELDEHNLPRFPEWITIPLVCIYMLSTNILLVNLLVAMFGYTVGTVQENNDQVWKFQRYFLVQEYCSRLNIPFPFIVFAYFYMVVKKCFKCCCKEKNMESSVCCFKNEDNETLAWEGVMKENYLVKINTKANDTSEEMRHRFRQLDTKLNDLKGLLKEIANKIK", "assay": "TRPM8 agonist activity, Fluo-8 calcium FLIPR assay (ChanTest)", "type": "cell-based", "conditions": "L-menthol = 1.0", "protocol": "In the first set of data, the potency and in vitro effects of test compounds were evaluated on cloned hTRPM8 channel (encoded by the human TRPM8 gene, expressed in CHO cells) using a Fluo-8 calcium kit and a Fluorescence Imaging Plate Reader (FLIPR^TETRA™) instrument. […] Test solutions were in a HEPES-buffered saline, in 384-well plates, and placed into the FLIPR instrument (Molecular Devices Corporation, Union City, Calif., USA). […] The test cells were Chinese Hamster Ovary (CHO) cells stably transfected with human TRPM8 cDNAs. Concentration-response data were analyzed via FLIPR Control software) and fitted to a Hill equation for the EC50."}, "[2]": {"biological_target": "TRPV1 channels (human TRPV1 gene expressed in HEK293 cells) (Homo sapiens (Human), UniProt Q8NER1)", "sequence (Q8NER1 whole entry)": "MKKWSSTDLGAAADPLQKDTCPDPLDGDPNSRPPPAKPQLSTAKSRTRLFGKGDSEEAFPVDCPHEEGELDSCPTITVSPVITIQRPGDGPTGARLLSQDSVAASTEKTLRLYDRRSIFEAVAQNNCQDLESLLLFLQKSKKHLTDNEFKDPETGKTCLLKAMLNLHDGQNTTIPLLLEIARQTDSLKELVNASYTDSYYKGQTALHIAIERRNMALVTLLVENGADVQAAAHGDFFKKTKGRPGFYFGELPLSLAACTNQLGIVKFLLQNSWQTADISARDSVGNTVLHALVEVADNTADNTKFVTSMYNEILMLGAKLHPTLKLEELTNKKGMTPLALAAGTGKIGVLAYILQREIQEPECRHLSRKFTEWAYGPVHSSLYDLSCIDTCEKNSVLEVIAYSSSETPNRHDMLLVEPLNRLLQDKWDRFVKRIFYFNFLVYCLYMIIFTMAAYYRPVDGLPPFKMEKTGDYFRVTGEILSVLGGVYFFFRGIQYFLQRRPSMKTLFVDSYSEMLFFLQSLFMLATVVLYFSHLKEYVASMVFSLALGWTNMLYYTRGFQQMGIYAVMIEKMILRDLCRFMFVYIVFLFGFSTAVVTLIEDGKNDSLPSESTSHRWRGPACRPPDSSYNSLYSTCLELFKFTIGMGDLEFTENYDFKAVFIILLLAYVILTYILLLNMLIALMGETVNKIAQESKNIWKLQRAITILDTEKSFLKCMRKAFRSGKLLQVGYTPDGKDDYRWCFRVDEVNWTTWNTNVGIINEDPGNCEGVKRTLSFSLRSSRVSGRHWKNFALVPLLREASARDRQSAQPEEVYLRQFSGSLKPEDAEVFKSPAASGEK", "assay": "Selectivity on TRPV1 channels", "type": "cell-based", "conditions": "positive control capsaicin", "description": "(§1) In a third set, the selectivity of the test compounds on TRPM8, TRPV1 channels (human TRPV1 gene expressed in HEK293 cells) and TRPA1 channels (human TRPA1 gene expressed in CHO cells) were examined.\n(§2) The selectivity of DIPA-1-9 on TRP channel receptors, TRPM8, TRPA1 and TRPV1 is shown in FIG. 3 of Yang et. al. A novel TRPM8 agonist relieves dry eye discomfort. BMC Ophthalmology ([…]) 17: 101, and incorporated herein by reference. The applicant is a co-author of this publication."}, "[3]": {"biological_target": "TRPA1 channels (human TRPA1 gene expressed in CHO cells) (Homo sapiens (Human), UniProt O75762)", "sequence (O75762 whole entry)": "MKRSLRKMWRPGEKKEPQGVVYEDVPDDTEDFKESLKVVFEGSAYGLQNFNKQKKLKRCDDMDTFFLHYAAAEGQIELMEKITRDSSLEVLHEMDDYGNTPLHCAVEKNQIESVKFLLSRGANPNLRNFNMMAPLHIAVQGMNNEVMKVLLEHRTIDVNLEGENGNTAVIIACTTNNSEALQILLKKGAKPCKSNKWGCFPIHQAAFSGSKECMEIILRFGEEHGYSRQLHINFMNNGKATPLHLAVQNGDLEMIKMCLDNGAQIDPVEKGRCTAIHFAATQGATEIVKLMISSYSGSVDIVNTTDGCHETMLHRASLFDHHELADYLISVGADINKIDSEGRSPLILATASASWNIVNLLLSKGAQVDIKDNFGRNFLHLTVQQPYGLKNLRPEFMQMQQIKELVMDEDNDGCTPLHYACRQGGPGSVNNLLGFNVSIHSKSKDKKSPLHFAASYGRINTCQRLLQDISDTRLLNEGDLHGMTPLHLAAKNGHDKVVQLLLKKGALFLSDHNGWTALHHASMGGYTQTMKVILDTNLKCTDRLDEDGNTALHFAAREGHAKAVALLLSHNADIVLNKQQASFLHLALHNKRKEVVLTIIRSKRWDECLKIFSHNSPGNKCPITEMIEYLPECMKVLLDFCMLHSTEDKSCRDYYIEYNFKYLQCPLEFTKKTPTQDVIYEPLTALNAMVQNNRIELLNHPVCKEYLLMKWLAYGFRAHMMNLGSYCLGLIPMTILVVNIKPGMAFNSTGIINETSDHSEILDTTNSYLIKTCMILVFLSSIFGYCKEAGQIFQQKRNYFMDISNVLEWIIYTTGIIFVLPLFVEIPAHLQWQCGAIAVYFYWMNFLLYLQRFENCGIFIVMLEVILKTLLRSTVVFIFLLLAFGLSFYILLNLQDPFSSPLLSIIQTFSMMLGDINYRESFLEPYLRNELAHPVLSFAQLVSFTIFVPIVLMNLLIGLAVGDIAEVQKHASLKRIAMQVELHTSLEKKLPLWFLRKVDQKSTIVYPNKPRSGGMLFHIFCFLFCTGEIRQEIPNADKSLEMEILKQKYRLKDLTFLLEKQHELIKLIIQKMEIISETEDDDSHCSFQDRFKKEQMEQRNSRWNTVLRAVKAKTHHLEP", "assay": "Selectivity on TRPA1 channels", "type": "cell-based", "conditions": "positive control mustard oil", "description": "as §1, §2"}, "[4]": {"assay": "Water solubility of 1-dialkylphosphorylalkanes", "type": "physicochemical", "description": "The DIPA compounds are colorless liquids with a density less than water. These structures differ from those described by Rowsell and Spring U.S. Pat. No. 4,070,496 because '496 structures have their “head” (phosphine oxide group) covered by larger, more lipophilic groups. […] The applicant synthesized these analogs (which are achiral, by contrast to the structures of '496 which are >95% chiral). […] This increased water-solublility is striking (Table 3). […] The DIPA analogs are now mobile in the extracellular fluids and permeate between cells to access nerve endings in the stratum basale."}, "[5]": {"tested_on": "rat skin", "assay": "Skin irritation tests on rat skin", "type": "in vivo", "design": "key to Redness after 20 μL applied topically to skin (scale of 0 to +++): scale of 0 to +++; scale of 0 to +++; scale of 0 to +++; scale of 0 to +++"}, "[6]": {"tested_on": "anesthetized rat", "assay": "Blood pressure and heart rate after subcutaneous injection in anesthetized rat", "type": "in vivo", "conditions": "injected subcutaneously"}, "[7]": {"tested_on": "eyelids of patients with dry eye disorder", "assay": "Application to eyelids of patients with dry eye disorder", "type": "in vivo, human"}, "[8]": {"tested_on": "anesthetized rat", "assay": "In vivo transdermal activity: shaking after topical application to abdominal skin of anesthetized rat", "conditions": "pure compound 20 μL on abdominal skin, counted 40 min", "protocol": "Shaking frequency was counted for 40 min after topical application.\nThe importance of water solubility for permeation was further illustrated in studies on the abdominal skin of anesthetized rat. […] The pharmacokinetic determinants of bioactivity are precise. Thus, for the avoidance of cold discomfort, DIPA-1-9 has to reach the receptors in the stratum basale but not “over-stimulate”."}, "[9]": {"tested_on": "Oral Cavity and Pharynx", "assay": "Sensory qualities of compounds in syrup applied to base of tongue of volunteers", "type": "in vivo, human", "protocol": "The DIPA compounds was 5 mg/mL in cherry-flavored syrup in a volume of 0.8 mL per dose. The sensory effect were recorded every 5 min for 1 hr.\nTests were on four volunteers, with 3 to 5 trials per substance. Compounds were prepared in cherry-flavored syrup at 5 mg/mL and administered ˜0.8 mL per dose with a 2 mL plastic vial to the base of the tongue. The subjects asked to rate the sensations for cooling intensity, cold discomfort and adverse taste.\nThe concentration of the DIPA compounds was 5 mg/mL in cherry-flavored syrup administered in a volume of 0.8 mL per dose. The sensory effect were recorded every 5 min for 1 hr."}, "[10]": {"tested_on": "respiratory syncytial virus (RSV) induced cough", "assay": "Mouse cough model of respiratory syncytial virus infection", "type": "in vivo", "conditions": "0.5 mg in 25 μL intranasally per mouse, 10 min before count"}, "[11]": {"tested_on": "capsaicin induced coughing", "assay": "Capsaicin induced coughing in an animal model", "conditions": "in vivo"}, "[12]": {"tested_on": "upper aerodigestive tract discomfort", "assay": "Case studies of DIPA-1-9 syrup in volunteers with upper aerodigestive tract discomfort", "type": "in vivo, human", "description": "The rationale and data set for selecting DIPA-1-9 in syrup as a treatment agent for upper aerodigestive discomfort have been described. […] The coolness spreads to the rest of throat and intensifies, as if a spoonful of rich ice cream had been swallowed. […] The cooling sensation can be used to facilitate mucus expectoration from the airways. Also relieved is the sense of suffocation when lying down to sleep in a subject that has dyspnea."}, "[13]": {"tested_on": "Oral Cavity and Pharynx", "assay": "Sensory qualities of compounds in syrup applied to base of tongue of volunteers", "type": "in vivo, human", "conditions": "concentration increased to 15 mg/mL, 0.8 mL per dose"}, "[14]": {"tested_on": "oral cavity", "assay": "DIPA-1-9 sprayed into the mouth with aerosol sprayer"}, "[15]": {"tested_on": "oropharynx and esophagus", "assay": "Sensory events and cold discomfort of compounds on throat, chest and body", "conditions": "for taste: oral cavity / tongue", "excerpt": "The terms “icy cold” is used to describe this adverse event in the throat.\nMost likely, the compound rapidly distributed and activated cold sensations in the eosophageal lining."}, "[16]": {"conditions": "5 mg/mL in cherry-flavored syrup, ~0.8 mL"}, "[17]": {"conditions": "10 subjects with cough, sprayer 5 mg/mL cherry syrup, 1 week"}}, "note": "Entries after “also recorded” stand apart in the source; their conditions may differ.", "data": [{"smiles": "CCCCCCCCCP(=O)(C(C)C)C(C)C", "note": "[DIPA-1-9, 1-Di(isopropyl)-phosphinoyl-nonane]", "values": [{"measurement": "Relative Potency to L-menthol", "setting": "[1]", "value": 4.0}, {"measurement": "activity on TRPV1 (selectivity)", "setting": "[2]", "value": "selective for TRPM8 and not TRPVI and TRPA1; also recorded: not on TRPV1 or TRPA1 receptors"}, {"measurement": "activity on TRPA1 (selectivity)", "setting": "[3]", "value": "selective for TRPM8 and not TRPVI and TRPA1; also recorded: not on TRPV1 or TRPA1 receptors"}, {"measurement": "water solubility relative to prior art / di-sec-butyl or mixed isopropyl-sec-butyl analogs", "setting": "[4]", "value": 10, "unit": "×"}, {"measurement": "solubility", "setting": "[4]; water", "value": "> 300", "unit": "mg/mL"}, {"measurement": "inflammatory response", "setting": "[5]; pure compound, 20 μL, abdominal skin of anesthetized rat", "value": "did not cause significant inflammatory response"}, {"measurement": "Redness after 20 μL applied topically to skin (scale of 0 to +++)", "setting": "[5]; rat skin, 20 μL", "value": 0}, {"measurement": "irritation of shaved rat skin", "setting": "[5]; up to 20 mg/mL", "value": "not to be irritating"}, {"measurement": "effect on blood pressure or heart rate", "setting": "[6]", "value": "did not affect blood pressure or heart rate"}, {"measurement": "irritation of eyelids", "setting": "[7]", "value": "not to be irritating"}, {"measurement": "shaking after topical application", "setting": "[8]", "value": "not active"}, {"measurement": "Adverse Taste", "setting": "[9]; [16]", "value": 0}, {"measurement": "Discomfort", "setting": "[9]; [16]", "value": 0}, {"measurement": "Sensation", "setting": "[9]; [16]", "value": "cool"}, {"measurement": "persistence of general sense of refreshment in the throat", "setting": "[9]; human, in vivo", "value": "≥ 3", "unit": "h"}, {"measurement": "cough frequency", "setting": "[10]", "value": "significantly inhibited cough frequency"}, {"measurement": "capsaicin induced coughing", "setting": "[11]", "value": "inhibited capsaicin induced coughing"}, {"measurement": "discomfort of satiety", "setting": "[12]; 8 mg/mL in simple syrup, three over-weight individuals", "value": "instantly relieved"}, {"measurement": "chronic cough outcome (cough variant asthma cases)", "setting": "[12]; 8 mg/mL in syrup, 1 mL vials as needed", "value": "the coughing problem had disappeared; also recorded: the cough was gone"}, {"measurement": "subjects reporting not effective", "setting": "[12]; [17]", "value": 3}, {"measurement": "subjects reporting partially effective", "setting": "[12]; [17]", "value": 4}, {"measurement": "subjects reporting very effective", "setting": "[12]; [17]", "value": 3}, {"measurement": "residual antinociceptive effect duration", "setting": "[12]; application to the throat", "value": 3, "unit": "h"}, {"measurement": "time to decrease in cough frequency", "setting": "[12]; person, 8 mg/mL in cherry-flavored syrup", "value": "≤ 3", "unit": "days"}, {"measurement": "pain or discomfort at increased concentration", "setting": "[13]", "value": "did not produce icy cold or pain"}, {"measurement": "taste", "setting": "[14]; 10 mg/mL spray", "value": "slight taste of bitterness"}, {"measurement": "persistence of sensation of cooling", "setting": "[14]; 10 mg/mL spray, contents spat out", "value": "≥ 1", "unit": "h"}, {"measurement": "cooling of oral cavity", "setting": "[14]; 10 mg/mL, 0.07 mL per activation, 3 activations", "value": "robust cooling of the oral cavity"}, {"measurement": "icy cold / pain in throat", "setting": "[15]; DIPA-1-9 up to 12 mg per unit", "value": "not seen; also recorded: did not produce stinging"}, {"measurement": "taste", "setting": "[15]", "value": "did not have significant adverse taste"}, {"measurement": "taste", "setting": "[15]; listed as DIPA1-9", "value": "does not have a strong metallic taste"}]}]}
